Laboratory results from ChEMBL document CHEMBL5678811 (Invest New Drugs, 2014).
The source made the active and inactive calls. The rule behind the calls is not given here.

Experiments:
MV4-11 [1] = assay: Cell cycle arrest in human MV4-11 cells assessed as accumulation of cells at G2/M-phase at 0.32 uM measured after 24 hrs by propidium iodide staining based flow cytometry (reference value: 15.23%); assay type: functional
MV4-11 [2] = assay: Cell cycle arrest in human MV4-11 cells assessed as accumulation of cells at G2/M-phase at 5 uM measured after 24 hrs by propidium iodide staining based flow cytometry (reference value: 15.23%); assay type: functional
MV4-11 [3] = assay: Cell cycle arrest in human MV4-11 cells assessed as accumulation of cells at S-phase at 5 uM measured after 24 hrs by propidium iodide staining based flow cytometry (reference value: 23.35%); assay type: functional
MDA-MB-231 [4] = assay: Cell cycle arrest in human MDA-MB-231 cells assessed as accumulation of cells at G1-phase at 0.16 uM measured after 24 hrs by propidium iodide staining based flow cytometry (reference value: 50.27%); assay type: functional
MDA-MB-231 [5] = assay: Cell cycle arrest in human MDA-MB-231 cells assessed as accumulation of cells at S-phase at 2.5 uM measured after 24 hrs by propidium iodide staining based flow cytometry (reference value: 38.27%); assay type: functional
[6] = Toxicity in human COLO 205 cells xenografted CD1 nu/nu mouse assessed as body weight loss at 50 mg/kg, po administered daily via gavage for 2 cycles of 3 weeks on/1 week rest; assay type: organism-based; settings: in vivo
[7] = Toxicity in human COLO 205 cells xenografted CD1 nu/nu mouse assessed as decrease in lymphocyte count at 50 mg/kg, po administered daily via gavage for 56 days and measured on day 41 to 69 by hematological analysis; assay type: organism-based; settings: in vivo, 1344 h, time 41-69 day
[8] = Plasma concentration at steady state in human COLO 205 cells xenografted po dosed CD1 nu/nu mouse; assay type: ADME, organism-based; settings: in vivo
[9] = Inhibition of recombinant human full-length N-terminal 6His-tagged/beta-subunit N-terminal GST tagged CK2 expressed in Sf21 insect cells at 200 nM using casein kinase 2 substrate peptide relative to control; settings: condition cancer
COLO 205 [10] = settings: Mus musculus, CD1, dose 50.0 mg/kg, route po, time lower 1.0 hrs, time upper […], TDE = time-dependent effect
COLO 205 [11] = settings: Mus musculus, CD1, dose 25-50 mg/kg, route po
COLO 205 [12] = settings: Mus musculus, CD1, dose 25-50 mg/kg, route po; remark: listed apart in the source
COLO 205 [13] = settings: Mus musculus, CD1, dose 50.0 mg/kg, route po
COLO 205 [14] = settings: Mus musculus, CD1, dose 100.0 mg/kg, route po, time 21.0 day
COLO 205 [15] = settings: Homo sapiens, dose 50.0 mg/kg, route po, time 56.0 day
COLO 205 [16] = settings: Homo sapiens, dose 50.0 mg/kg, route po, time 3.0 weeks
Description: Antitumor activity against human COLO 205 cells xenografted in CD1 nu/nu mouse assessed as tumor growth inhibition at 50 mg/kg, po administered daily via gavage for 2 cycles of 3 weeks on/1 week rest

Calu-6 = settings: Homo sapiens, dose 50.0 mg/kg, route po, time 21.0 day
Mus musculus = species: Mus musculus; settings: CD1, dose 50.0 mg/kg, route po, time 22.0 day
[17] = biological target: Homeodomain-interacting protein kinase 2 (Homo sapiens) (UniProt Q9H2X6); settings: Sf21, dose 200.0 nM
Sequence of Homeodomain-interacting protein kinase 2 (Homo sapiens) (Q9H2X6 whole entry, looked up): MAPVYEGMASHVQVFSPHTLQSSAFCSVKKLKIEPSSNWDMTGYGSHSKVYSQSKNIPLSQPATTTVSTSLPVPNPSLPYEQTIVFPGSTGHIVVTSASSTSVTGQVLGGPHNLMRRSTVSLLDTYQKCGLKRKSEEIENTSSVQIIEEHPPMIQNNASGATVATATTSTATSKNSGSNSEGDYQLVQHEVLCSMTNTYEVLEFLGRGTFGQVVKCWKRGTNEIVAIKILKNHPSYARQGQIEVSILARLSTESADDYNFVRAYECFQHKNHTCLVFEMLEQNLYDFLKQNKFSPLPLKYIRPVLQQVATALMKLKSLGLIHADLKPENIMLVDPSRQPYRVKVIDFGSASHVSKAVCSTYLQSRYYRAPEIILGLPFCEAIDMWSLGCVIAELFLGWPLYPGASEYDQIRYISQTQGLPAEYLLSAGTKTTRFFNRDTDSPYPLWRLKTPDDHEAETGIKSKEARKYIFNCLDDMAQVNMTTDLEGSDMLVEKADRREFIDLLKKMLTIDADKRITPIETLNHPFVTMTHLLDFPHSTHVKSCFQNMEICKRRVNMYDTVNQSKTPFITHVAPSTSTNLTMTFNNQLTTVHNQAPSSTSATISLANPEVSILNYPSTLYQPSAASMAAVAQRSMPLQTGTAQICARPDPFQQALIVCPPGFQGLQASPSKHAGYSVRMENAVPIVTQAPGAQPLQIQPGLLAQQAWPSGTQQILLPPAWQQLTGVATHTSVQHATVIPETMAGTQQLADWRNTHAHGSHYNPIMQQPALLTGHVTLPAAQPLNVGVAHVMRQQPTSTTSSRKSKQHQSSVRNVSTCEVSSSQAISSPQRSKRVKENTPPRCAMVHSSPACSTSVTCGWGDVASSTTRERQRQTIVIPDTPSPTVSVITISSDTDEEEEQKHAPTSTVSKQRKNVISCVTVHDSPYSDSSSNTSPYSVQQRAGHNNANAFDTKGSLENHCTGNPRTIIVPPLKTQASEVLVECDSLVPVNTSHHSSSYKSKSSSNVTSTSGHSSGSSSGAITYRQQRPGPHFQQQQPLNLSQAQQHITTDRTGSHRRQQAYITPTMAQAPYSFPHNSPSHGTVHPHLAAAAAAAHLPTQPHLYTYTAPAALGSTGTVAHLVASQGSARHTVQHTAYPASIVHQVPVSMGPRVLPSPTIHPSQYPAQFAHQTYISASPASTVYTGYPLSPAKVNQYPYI
Description: Inhibition of recombinant human N-terminal His6-tagged HIPK2 (165 to 564 residues) expressed in baculovirus infected Sf21 insect cells at 200 nM using MBP as substrate relative to control

[18] = biological target: Mitogen-activated protein kinase 10 (Homo sapiens) (UniProt P53779); settings: Sf21, dose 200.0 nM
Sequence of Mitogen-activated protein kinase 10 (Homo sapiens) (P53779 whole entry): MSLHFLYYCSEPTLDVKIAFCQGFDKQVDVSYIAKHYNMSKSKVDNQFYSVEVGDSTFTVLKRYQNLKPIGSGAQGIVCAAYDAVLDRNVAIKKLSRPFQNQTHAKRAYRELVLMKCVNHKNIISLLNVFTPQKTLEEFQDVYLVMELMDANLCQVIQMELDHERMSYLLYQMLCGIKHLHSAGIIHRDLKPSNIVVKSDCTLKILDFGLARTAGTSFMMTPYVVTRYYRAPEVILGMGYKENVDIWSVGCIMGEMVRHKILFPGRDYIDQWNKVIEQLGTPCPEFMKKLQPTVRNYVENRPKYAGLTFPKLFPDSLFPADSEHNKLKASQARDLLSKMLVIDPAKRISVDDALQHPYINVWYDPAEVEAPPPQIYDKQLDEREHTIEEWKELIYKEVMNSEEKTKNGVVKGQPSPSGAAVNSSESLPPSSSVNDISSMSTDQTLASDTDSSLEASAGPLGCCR
Description: Inhibition of recombinant human N-terminal His6-tagged JNK3 expressed in baculovirus infected Sf21 insect cells relative to control

[19] = test system: T1, Receptor-type tyrosine-protein kinase FLT3 (Homo sapiens), P36888 [D835Y]; settings: Sf21, dose 200.0 nM
T1 sequence (whole entry): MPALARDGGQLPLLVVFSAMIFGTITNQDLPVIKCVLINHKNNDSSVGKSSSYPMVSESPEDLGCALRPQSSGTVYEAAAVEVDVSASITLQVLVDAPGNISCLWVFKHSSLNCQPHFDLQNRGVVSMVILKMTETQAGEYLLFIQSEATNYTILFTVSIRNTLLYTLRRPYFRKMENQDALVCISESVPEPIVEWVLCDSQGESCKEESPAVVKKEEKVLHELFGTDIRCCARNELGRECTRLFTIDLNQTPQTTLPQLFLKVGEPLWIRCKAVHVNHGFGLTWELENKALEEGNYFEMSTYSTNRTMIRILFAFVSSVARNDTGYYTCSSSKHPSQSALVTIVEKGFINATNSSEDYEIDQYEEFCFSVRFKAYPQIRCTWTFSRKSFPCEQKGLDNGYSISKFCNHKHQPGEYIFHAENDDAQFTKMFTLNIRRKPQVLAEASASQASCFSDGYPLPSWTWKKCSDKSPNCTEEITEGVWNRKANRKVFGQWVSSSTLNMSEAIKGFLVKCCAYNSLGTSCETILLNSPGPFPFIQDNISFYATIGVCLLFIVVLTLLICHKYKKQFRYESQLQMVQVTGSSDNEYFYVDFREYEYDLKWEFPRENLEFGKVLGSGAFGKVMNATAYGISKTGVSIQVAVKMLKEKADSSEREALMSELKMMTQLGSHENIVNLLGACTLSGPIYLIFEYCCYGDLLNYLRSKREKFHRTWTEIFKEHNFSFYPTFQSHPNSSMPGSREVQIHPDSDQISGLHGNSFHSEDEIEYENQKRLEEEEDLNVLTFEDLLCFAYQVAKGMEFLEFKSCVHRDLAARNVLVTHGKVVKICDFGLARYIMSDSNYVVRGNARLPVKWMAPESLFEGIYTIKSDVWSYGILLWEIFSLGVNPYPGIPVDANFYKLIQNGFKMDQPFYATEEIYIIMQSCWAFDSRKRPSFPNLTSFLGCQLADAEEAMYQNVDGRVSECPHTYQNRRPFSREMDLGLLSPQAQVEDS

[20] = biological target: T2, Serine/threonine-protein kinase 17A (Homo sapiens) (UniProt Q9UEE5); settings: Sf21, dose 200.0 nM
T2 sequence (whole entry): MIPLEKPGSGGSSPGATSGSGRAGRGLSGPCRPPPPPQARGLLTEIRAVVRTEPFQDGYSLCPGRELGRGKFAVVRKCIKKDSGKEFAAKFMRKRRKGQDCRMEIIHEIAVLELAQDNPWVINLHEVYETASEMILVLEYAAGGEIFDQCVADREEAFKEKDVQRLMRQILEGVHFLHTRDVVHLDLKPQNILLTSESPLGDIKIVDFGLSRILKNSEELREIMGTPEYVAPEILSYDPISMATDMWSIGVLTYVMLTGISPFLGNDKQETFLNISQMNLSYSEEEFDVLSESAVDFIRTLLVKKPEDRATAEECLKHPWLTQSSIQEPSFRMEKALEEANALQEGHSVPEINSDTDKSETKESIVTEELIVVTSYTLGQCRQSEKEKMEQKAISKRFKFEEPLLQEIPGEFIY
Description: Inhibition of recombinant human full-length N-terminal 6His-tagged DRAK1 expressed in baculovirus infected Sf21 cells at 200 nM using ZIPtide as substrate relative to control

CCN1CCN(Cc2ccc(Nc3ncc(F)c(-c4cc(F)c5nc(C)n(C(C)C)c5c4)n3)nc2)CC1 [ABEMACICLIB]
Activity (MV4-11 [1]): 1.82%
Activity (MV4-11 [2]): 0.54%
Activity (MV4-11 [3]): 3.9%
Activity (MDA-MB-231 [4]): 78.86%
Activity (MDA-MB-231 [5]): 8.19%
Activity [6]: Non-Toxic
Activity [7]: Non-Toxic
Cpss [8]: ~ 400 nM
inhibition at 0.2 µM [9]: > 90%
inhibition (COLO 205 [10]): Tde
inhibition (COLO 205 [11]): Dose-Dependent Effect
inhibition (COLO 205 [12]): Dose-Dependent Effect
inhibition (COLO 205 [13]): Active
inhibition (COLO 205 [14]): Active
TGI (COLO 205 [15]): Active
TGI (COLO 205 [16]): Active
TGI (Calu-6): Active
inhibition (Mus musculus): inactive
inhibition [17]: > 90%
inhibition [18]: > 90%
inhibition [19]: > 90%
inhibition [20]: > 90%
